Results: the supplement of paper PMC4862054

Tests used:
Experiment in all cases: normalised response (% of control), CellTiter-Glo; higher = more viable cells (100 = DMSO, 0 = benzethonium chloride kill control)
Conditions in all cases: incubation time: 72 h
BT-474 = tested on: BT-474
Outline: (§1)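 Every value is a normalised signal taken at one concentration of a dilution series. Compound was placed in 384-well plates at 5 concentrations in 10-fold steps over a compound-specific 10,000-fold range, and 20 µl of breast cancer cell suspension was seeded onto it. After 72 h, CellTox Green fluorescence (485/520 nm) was measured first and CellTiter-Glo luminescence second, following 10 min at room temperature. Each plate was scaled to 0.1 % DMSO (100) and a positive kill control (0).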

BT-549 = tested on: BT-549
Outline: as §1

CAL-120 = tested on: CAL-120
Outline: as §1

CAL-148 = tested on: CAL-148
Outline: as §1

CAL-51 = tested on: CAL-51
Outline: as §1

CAL-85-1 = tested on: CAL-85-1
Outline: as §1

DU-4475 = tested on: DU-4475
Outline: as §1

HCC1143 = tested on: HCC1143
Outline: as §1

HCC1599 = tested on: HCC1599
Outline: as §1

HCC1937 = tested on: HCC1937
Outline: as §1

HDQ-P1 = tested on: HDQ-P1
Outline: as §1

Hs578T = tested on: Hs578T
Outline: as §1

MCF-10A = tested on: MCF-10A
Outline: as §1

MDA-MB-231 = tested on: MDA-MB-231
Outline: as §1

MDA-MB-436 = tested on: MDA-MB-436
Outline: as §1

MDA-MB-453 = tested on: MDA-MB-453
Outline: as §1

MDA-MB-468 = tested on: MDA-MB-468
Outline: as §1

MFM-223 = tested on: MFM-223
Outline: as §1

SK-BR-3 = tested on: SK-BR-3
Outline: as §1

Compound	normalised response (BT-474) [%]	normalised response (BT-549) [%]	normalised response (CAL-120) [%]	normalised response (CAL-148) [%]	normalised response (CAL-51) [%]	normalised response (CAL-85-1) [%]	normalised response (DU-4475) [%]	normalised response (HCC1143) [%]	normalised response (HCC1599) [%]	normalised response (HCC1937) [%]	normalised response (HDQ-P1) [%]	normalised response (Hs578T) [%]	normalised response (MCF-10A) [%]	normalised response (MDA-MB-231) [%]	normalised response (MDA-MB-436) [%]	normalised response (MDA-MB-453) [%]	normalised response (MDA-MB-468) [%]	normalised response (MFM-223) [%]	normalised response (SK-BR-3) [%]
CC(C)Cn1cnc2c(N)nc3ccccc3c21 [Imiquimod] (0.25 nM)	102	99	96.5	99.6	96.8	103	104	99.2	99.2	97.1	94.2	99	111	101	99.6	109	91.9	100	110
O=C(CCCCCCC(=O)Nc1ccc([C@H]2O[C@@H](CSc3nc(-c4ccccc4)c(-c4ccccc4)o3)C[C@@H](c3ccc(CO)cc3)O2)cc1)NO [Tubacin] (1 nM)	94.2	100	96.1	97.6	119	92.4	100	98.9	93.5	93.3	94.6	100	92.8	97.5	82.1	103	91.5	96.8	101
CC(C)Cn1cnc2c(N)nc3ccccc3c21 [Imiquimod] (2.5 nM)	104	95	103	107	114	98.4	109	103	113	96.2	97.2	111	105	103	95.8	104	104	105	
CC1(C)NC(=O)N(c2ccc([N+](=O)[O-])c(C(F)(F)F)c2)C1=O [Nilutamide] (10 nM)	105	105	97.9	112	127	96	109	101	113	101	95.6	99.1	110	102	110	103	93.3	112	117
C[C@@H](Oc1cc(-c2cnn(C3CCNCC3)c2)cnc1N)c1c(Cl)ccc(F)c1Cl [Crizotinib] (0.1 nM)	101	104	102	102	82.4	92.6	106	99.3	82	100	96.7	96.2	95.6	102	96.7	111	91.7	103	81.6
C=C(c1ccc(C(=O)O)cc1)c1cc2c(cc1C)C(C)(C)CCC2(C)C [Bexarotene] (10 nM)	99.8	97.1	101	106	137	107	101	101	96.3	94.6	106	97	99.4	100	100	101	104	107	98.8
C#Cc1cccc(Nc2ncnc3cc(OCCOC)c(OCCOC)cc23)c1 [Erlotinib] (10 nM)	99.9	97.3	102	113	74.3	102	105	106	101	96	91.7	110	98.8	103	103	107	105	111	
Cc1ccc(-n2nc(C(C)(C)C)cc2NC(=O)Nc2ccc(OCCN3CCOCC3)c3ccccc23)cc1 [Doramapimod] (10 nM)	93.5	99.3	94.5	80.3	121	96	98.3	98.3	103	91.7	95.5	101	90.7	96.3	98.1	85.8	94	89.5	
O=C(O)c1ccc(-c2c[nH]c3ncc(-c4ccccc4)cc23)cc1C1CCCC1 (10 nM)	91.8	98.7	95.3	90.4	105	96.3	99.2	102	108	101	95.9	99.6	95.9	94	95.1	91.8	96	94	
CNCc1ccc(-c2[nH]c3cc(F)cc4c3c2CCNC4=O)cc1 [Rucaparib] (10 nM)	93.6	96.9	94.2	82.7	112	98.9	98.3	100	102	102	96.8	98.5	98.4	97.2	99.5	93.9	92.3	93.5	
CS(=O)(=O)c1ccc(C2=C(c3ccccc3)C(=O)OC2)cc1 [Rofecoxib] (10 nM)	103	89.7	102	115	73	102	105	106	89	104	102	114	107	102	102	110	104	113	
COc1cc2ncnc(Nc3ccc(F)c(Cl)c3)c2cc1NC(=O)/C=C/CN1CCCCC1 [Dacomitinib] (1 nM)	103	99.8	100	112	108	91.2	100	106	102	94.3	90.7	105	97.7	101	97.8	93.8	103	101	
CCC(C)(C)C(=O)O[C@H]1C[C@@H](C)C=C2C=C[C@H](C)[C@H](CC[C@@H]3C[C@@H](O)CC(=O)O3)[C@H]21 [Simvastatin] (1 nM)		98.9	100	102	114	96.8	102	102	111	103	98.5	103	107	94.8		106	100		105
Clc1ccc(Nc2nnc(Cc3ccncc3)c3ccccc23)cc1 [Vatalanib] (10 nM)	105	95	96	109	127	100	106	102	89.6	102	102	100	105	104	107	104	102	102	
CCC(C)(C)C(=O)O[C@H]1C[C@@H](C)C=C2C=C[C@H](C)[C@H](CC[C@@H]3C[C@@H](O)CC(=O)O3)[C@H]21 [Simvastatin] (10 nM)			96	103	115	96.2	104	98.7			103	96.3	108	99.2	98.1	98.3	103	102	
CCC1=C[C@@H]2CN(C1)Cc1c([nH]c3ccccc13)[C@@](C(=O)OC)(c1cc3c(cc1OC)N(C)[C@H]1[C@@](O)(C(=O)OC)[C@H](OC(C)=O)[C@]4(CC)C=CCN5CC[C@]31[C@@H]54)C2 [Vinorelbine] (10 nM)	99.3	97.6	96.6	107	87.5	98.1	101	97.5	84.7	99.1	99.4	101	102	101	94.4	80.7	95.8	106	
COc1cc([C@@H]2c3cc4c(cc3[C@@H](O[C@@H]3O[C@@H]5CO[C@@H](C)O[C@H]5[C@H](O)[C@H]3O)[C@H]3COC(=O)[C@H]23)OCO4)cc(OC)c1O [Etoposide] (10 nM)	103	97.8	103	106	98.9	102	104	107	99.7	103	99.3	104	113	105	106	109	98.6	109	
CN(N=O)C(=O)N[C@@H](C=O)[C@@H](O)[C@H](O)[C@H](O)CO [Streptozocin] (10 nM)	109		100	108	77.4	98.9	106	105		109	102	104	105	104	98.1	106	114	108	102
Cn1c(Nc2ccc(C(F)(F)F)cc2)nc2cc(Oc3ccnc(-c4ncc(C(F)(F)F)[nH]4)c3)ccc21 [RAF265] (1 nM)	106	96.7	104	112	111	104	109	109	102	103	100	105	112	98.5	105	127	104	114	
CN(C)/N=N/c1[nH]cnc1C(N)=O [Dacarbazine] (10 nM)	105	101	98.3	102	103	102	101	103	85.9	96.3	101	105	101	104	101	111	106	104	
CN[C@@H]1C[C@H]2O[C@@](C)([C@@H]1OC)n1c3ccccc3c3c4c(c5c6ccccc6n2c5c31)C(=O)N[C@H]4O [UCN-01] (10 nM)	83.8	98.4	80.2	108	106	95.1	101	95.9	94	94.3	96.6	92.4	90.5	81.1	106	91.8	97.3	102	
